Where two headings read alike, the source gives them in different places.
Legend:
[1] = system: MDA-MB-231 breast cancer cell line; assay: Colony formation assay (clonogenic survival), parental MDA-MB-231; assay type: cell-based
Method: (§1) Colony Formation Assay (CFA).
(§2) Cells were seeded out in appropriate dilutions and treated with the vehicle (0.01% DMSO) or PARP inhibitors at various concentrations for 24 hr. After treatment, cells were then cultured in drug-free medium for several days (at least six rounds of replication), depending on the proliferation rate of each cell line. Colonies were fixed with formaldehyde (4%) and stained with crystal violet. Colonies containing more than 50 normal-appearing cells were counted using a microscope. Each drug concentration was assessed in triplicate, and the experiments were repeated three times.

[2] = system: MDA-MB-231 shSCR cells; assay: Colony formation assay (clonogenic survival), MDA-MB-231 shSCR; assay type: cell-based
Method: as §1, §2

[3] = system: MDA-MB-231 shPARP1 cells; assay: Colony formation assay (clonogenic survival), MDA-MB-231 shPARP1; assay type: cell-based
Method: as §1, §2

[4] = system: MDA-MB-231 shK-H cells; assay: Colony formation assay (clonogenic survival), MDA-MB-231 shK-H; assay type: cell-based; conditions: for sensitivity of shK-H cells in colony forming assays: shK-H cells compared to parental or shSCR 231 cells, 24 hr treatment; for CC50: Homo sapiens
Method: as §1, §2

[5] = system: HCC1569 breast cancer cell line; assay: cells; assay type: cell-based; conditions: Homo sapiens, HCC1569, read-out: AG014699 Mean LC50 (SEM)
Method: as §1, §2

[6] = system: HCC202 breast cancer cell line; assay: cells; assay type: cell-based; conditions: HCC202, read-out: AG014699 Mean LC50 (SEM)
Method: as §1, §2

[7] = system: HTB122 breast cancer cell line; assay: cells; assay type: cell-based; conditions: read-out: AG014699 Mean LC50 (SEM)
Method: as §1, §2

[8] = system: HTB24 breast cancer cell line; assay: cells; assay type: cell-based; conditions: read-out: AG014699 Mean LC50 (SEM)
Method: as §1, §2

[9] = system: MCF-7 breast cancer cell line; assay: cells; assay type: cell-based; conditions: Homo sapiens, MCF7, read-out: AG014699 Mean LC50 (SEM)
Method: as §1, §2

[10] = biological target: PARP1 (Homo sapiens, UniProt P09874); assay: PARP activity assay (PAR formation, immunoblot of total protein lysates); assay type: biochemical; conditions: lysates of parental, shK-H, shPARP1, shSCR 231 cells
Chain of PARP1 (P09874 whole entry): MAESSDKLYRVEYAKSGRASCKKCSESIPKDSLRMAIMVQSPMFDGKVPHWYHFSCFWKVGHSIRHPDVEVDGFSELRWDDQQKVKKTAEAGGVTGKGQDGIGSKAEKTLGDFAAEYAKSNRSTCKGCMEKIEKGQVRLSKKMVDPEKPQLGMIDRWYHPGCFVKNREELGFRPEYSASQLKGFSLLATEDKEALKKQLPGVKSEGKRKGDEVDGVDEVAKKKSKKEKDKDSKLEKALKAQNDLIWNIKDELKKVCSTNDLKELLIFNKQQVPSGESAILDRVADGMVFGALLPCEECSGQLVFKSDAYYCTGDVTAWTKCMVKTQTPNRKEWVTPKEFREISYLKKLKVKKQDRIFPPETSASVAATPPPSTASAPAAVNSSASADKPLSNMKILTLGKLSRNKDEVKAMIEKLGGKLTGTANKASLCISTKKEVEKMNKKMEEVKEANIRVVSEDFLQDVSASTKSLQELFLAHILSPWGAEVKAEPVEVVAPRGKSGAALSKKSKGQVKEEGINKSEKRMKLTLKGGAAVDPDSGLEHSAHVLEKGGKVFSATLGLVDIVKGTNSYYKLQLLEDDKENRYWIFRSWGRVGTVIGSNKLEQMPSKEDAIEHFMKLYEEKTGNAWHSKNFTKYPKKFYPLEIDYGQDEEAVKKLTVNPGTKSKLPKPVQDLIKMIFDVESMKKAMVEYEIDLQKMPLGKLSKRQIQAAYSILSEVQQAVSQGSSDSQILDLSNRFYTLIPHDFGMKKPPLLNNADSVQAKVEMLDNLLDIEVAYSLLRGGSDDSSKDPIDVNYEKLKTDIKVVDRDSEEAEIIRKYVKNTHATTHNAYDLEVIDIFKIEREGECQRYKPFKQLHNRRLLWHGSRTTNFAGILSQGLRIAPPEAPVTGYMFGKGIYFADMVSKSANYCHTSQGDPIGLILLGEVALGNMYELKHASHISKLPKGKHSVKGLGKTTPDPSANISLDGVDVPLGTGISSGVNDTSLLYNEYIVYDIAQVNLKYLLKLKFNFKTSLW
Method: PARP Activity Assay. PARP activity was measured using immunoblot assay, which measured the amount of poly(ADP)-ribonucleotide (PAR) products synthesized using total protein lysates for PARP enzymatic activity in vitro. Briefly, the reaction containing total protein lysate (90 μg), and excess blunt-ended double-strand DNA oligonucleotide (26-mer) with internal synthetic abasic site (50 uM) in a reaction buffer containing Tris-HCl (10 mM, pH=7.4) and Mg^2+ (12 mM) was initiated by addition of excess β-NAD^+ (10 mM). The reaction was then stopped at various time-points by the addition of ice-cold concentrated AG014699/Rucaparib (250 μM), a known PARP1 inhibitor. Aliquots from each time points of the reaction were blotted onto a nitrocellulose membrane (BioRad dot blotter), and processed using standard Western blot assays. The density of each dots were quantified by ImageJ and plotted by GraphPad PRISM after normalization to controls (no NAD^+ addition).

[11] = system: shK-H 231 cells; assay: TUNEL assay of apoptotic cell death; assay type: cell-based; conditions: Rucaparib 5 and 10 μM, 24 hr
Method: TUNEL Assay. To measure apoptotic cell death, log phase 231 shSCR or shK-H cells were treated with the vehicle (0.01% DMSO) or Rucaparib (5 and 10 μM) for 24 hr, and incubated in drug-free media for additional 72 hr in the cell incubator. The cells were then harvested and fixed in 70% ethanol overnight at −20° C. Equal amount of cells from each treatment were then subjected to terminal deoxynucleotidyltransferase dUTP nick end labeling (TUNEL) following the standard protocols from APO-Direct TUNEL Assay kit (BD Biosciences), which include positive and negative controls. Flow cytometry experiments were immediately performed using the BD LSRFortessa II cell analyzer, and data were analyzed using the BD FACSDiva software (www.bdbiosciences.com). All experiments were performed in triplicate.

[12] = system: shK-H 231 cells; assay: Immunofluorescence of γ-H2AX and 53BP1 foci (DSB markers), shK-H cells; assay type: cell-based; conditions: shK-H-depleted 231 cells, Rucaparib 5 μM, 24 hr
Method: (§3) MDA-MB-231 shSCR or shK-H cells were plated in a six-well plate (˜200,000 each well containing a glass slide) overnight. The next day, cells were treated with DMSO (0.01%) or Rucaparib/AG014699 (5 μM) for 24 hr. After treatment, the media was gently replaced with drug-free media and harvested at various times (0, 1, 6, 24 hr). The slides were gently washed with phosphate-buffered solution (pH=7.4), and fixed with ice cold methanol:acetone solution (3:1) for 10 min at −20° C. The cells were then washed and rehydrated with PBS at room temperature (3×, 5 min intervals). Next, the cells were incubated in blocking solution (5% normal goat serum in PBS) for 60 min at RT. After blocking, the cells were then incubated in primary antibody (diluted in 5% normal goat serum in PBS) overnight at 4° C. The next day, the cells were washed three times with wash buffer (1% BSA in PBS; 5 min. interval between washes). […]
(§4) To elucidate the mechanism by which K-H depletion sensitizes cells to PARP inhibition, the inventors treated shSCR vs shK-H 231 cells with vehicle (0.01% DMSO) or Rucaparib (5 μM) for 24 hr and quantified DSB formation at various times post-treatment using γ-H2AX and/or 53BP1 as surrogate DSB markers (Lobrich et al., 2010; Anderson et al., 2001 and Bekker-Jensen et al., 2005) (representative images, FIG. 2A).

[13] = system: shSCR 231 cells; assay: Immunofluorescence of γ-H2AX and 53BP1 foci (DSB markers), shSCR cells; assay type: cell-based; conditions: shSCR 231 cells with wild-type K-H; Rucaparib 5 μM, 24 hr
Method: as §3, §4

[14] = system: HCC1937 cells; assay: Sulforhodamine B viability assay in HCC1937 cells; assay type: cell-based; conditions: Rucaparib 30 μM, 24 hr
Description: FIGS. 8A-H. Pharmacological and genetic ablation of PARP1 activity is synthetic lethal with aberrant K-H reduction in BRCA-proficient breast cancers. (FIG. 8A) Western blot analysis of the parental BRCA-proficient 231 TNBC compared with 231 cells engineered to generate stable short hairpin RNA targeting non-specific gene control (shSCR), Kub5-Hera (shK-H) or PARP1 (shPARP1). (FIG. 8B) Chemical structures of PARP inhibitors used in this study. Left, AG014361; Right, AG014699 or Rucaparib. (C) Colony formation of specified cell lines treated with varying concentrations (0, 1, 2.5, 5, 10, 25 μM) of PARP inhibitor, AG014361, for 24 hr. Survival is expressed as mean percentage of colonies formed relative to vehicle-treated (0.01% DMSO) cells; error bars represent ±s.e.m. from three replicates. (FIG. 8D) Total cellular proteins from indicated 231 cells treated with vehicle (0.01% DMSO), AG014699/Rucaparib (5 μM), or staurosporine (STS, 2 μM) were subjected to Western blot analysis with indicated antibodies. (FIG. 8E) Western blot analysis of HCC1937 cell lines stably transfected with empty vector (lane 1), BRCA1 cDNA (lane 2), BRCA1 cDNA+ transient siSCR (lane 3), or BRCA1 cDNA+ transient siK-H (lane 4). […] Colorimetric intensity values were obtained using a plate reader, and normalized to control (0.01% DMSO). […]

[15] = system: 231 cells; assay: Western blot analysis of pS1497-BRCA1 and CDK1 in 231 cells; assay type: cell-based; conditions: 24 hr; for CDK1 protein level: Rucaparib 5 μM and/or RO3066 0.5 and 1 μM
Method: FIGS. 9A-H. Loss of K-H compromises CDK1 expression/activity and reduces HR-mediated DSB repair. (FIG. 9[…]1 cells transiently transfected with indicated concentrations of siK-H for 48 hr. Total cellular proteins from each treatments were subjected to Western blot analysis using indicated antibodies. (FIG. 9B) Western blot analysis of CDK1 protein levels in 231 […] treated with siK-H (15 nM) and harvested at various times (24, 48, 72 hr). (FIG. 9C) Western blot analysis of CDK1 protein levels in 231 cells treated with siRNA to nonspecific gene control (siSCR) or specific genes as indicated (15 nM). Specific siRNA oligonucleotide sequences used in this study are listed in Table S3. […] (FIG. 9E) 231 cells treated with ionizing radiation (IR, 2 Gy) and harvested after 1 hr. […] Bottom, Endogenous phospho-[…] BRCA1 is higher in shSCR compared to shK-H. After IR treatment, […] BRCA1 phosphorylation is impaired in 231 shK-H but not in shSCR. (FIG. 9F) 231 cells treated with PARP1i Rucaparib (5 μM, 24 hr), CDK1 inhibitor RO3066 (0.5 and 1 μM, 24 hr) or combination [Rucaparib+RO3066]. Cells were harvested after 24 hr treatment. […] BRCA1 was activated ([…]-BRCA1) after Rucaparib treatment alone (lane 2) but not in combination with CDK1 inhibitor, RO3066 (lanes 5 and 6). […] (FIG. 90) Comparison of 231 […]) treated with Rucaparib (5 μM, 24 hr), CDK1 inhibitor RO3066 (1 μM, 24 hr) or combination [Rucaparib+RO3066]. Cells were harvested after 24 hr treatment. […] Endogenous […]-BRCA1 was higher in vehicle-treated shSCR (lane 1) compared to shK-H (lane 6). […] (FIG. 9H) Homologous recombination assay in MCF-7 cells using DR-GFP reporter system. Columns represent mean percentage of GFP-positive cells normalized to control (siSCR); error bars represent ±s.e.m. from duplicate experiments, *p<0.05, **p<0.01. See Table S3 for siRNA sequences. siK-H used was to 3'-UTR. Western Blot Analysis. Whole-cell lysates and nuclear extracts were prepared as previously described (Morales et al., 2014). See Supplementary Table S2 for a list of specific antibodies and dilutions used. Protein concentrations were determined by BCA Assay following manufacturer's instructions (Thermo Scientific). Normalized protein samples were separated on denaturing gradient gels (4-20% from BioRad) and were transferred to PVDF membranes for immunoblotting. After transfer, the membranes were first blocked with 1× Sigma Blocking Buffer for an hour at room temperature. The membranes were then incubated with the indicated primary antibodies diluted in 1× Sigma Blocking Buffer at 4° C. overnight. After this step, the membranes were washed with PBST (3×, 10 minutes each). HRP-conjugated secondary antibodies were diluted in 1× Sigma Blocking Buffer and incubated with the membranes at room temperature for 1 hr. […]

[16] = Homo sapiens, MDA-MB-231, read-out: AG014699 Mean LC50 (SEM)
[17] = Homo sapiens, MDA-MB-231, read-out: LC50 values

Structure (SMILES): CN(C)Cc1ccc(-c2nc3cccc4c3n2CCNC4=O)cc1 [AG014361]
- CC50 ([1]; parental 231 cells, similar treatment conditions, read-out: LC50 values): ~20 µM
- CC50 ([2]; shSCR 231 cells, similar treatment conditions, read-out: LC50 values): ~20 µM
- additional lethality in PARP1-deficient cells ([3]; shPARP1 231 cells, dose-response curve coinciding with parental or shSCR cells): did not induce additional lethality
- CC50 ([3]; shPARP1 231 cells, similar treatment conditions, read-out: LC50 values): ~20 µM
- sensitivity of shK-H cells in colony forming assays [4]: more sensitive

Structure (SMILES): CNCc1ccc(-c2[nH]c3cc(F)cc4c3c2CCNC4=O)cc1 [AG014699, Rucaparib]
- CC50 [1, 16]: 20 µM
- CC50 [1, 17]: ~20 µM
- CC50 [5]: 18 µM
- CC50 [6]: 6.7 µM
- CC50 [7]: 3.9 µM
- CC50 [8]: 1.5 µM
- CC50 [9]: 11 µM
- CC50 [2, 16]: 18 µM
- CC50 [2, 17]: ~20 µM
- CC50 [3, 16]: 17 µM
- CC50 [3, 17]: ~20 µM
- CC50 ([4]; MDA-MB-231, read-out: AG014699 Mean LC50 (SEM)): 0.7 µM
- CC50 ([4]; MDA-MB-231, read-out: lethality (LC50) in shK-H 231 cells): 0.66 µM
- fold greater lethality than similar AG014361 exposures ([4]; shK-H 231 cells, Rucaparib vs AG014361): ~6 fold
- Relative PARP enzymatic activity [PAR formation/Time (sec)] [10]: inhibited
- apoptosis (% TUNEL+) [11]: dose-dependent increase in apoptosis
- levels of co-localized γ-H2AX and 53BP1 foci (persistent DSBs) [12]: dramatically increased
- DSB levels (53BP1 foci formation) ([12]; over time post-treatment): Dramatic increase in DSB levels
- levels of DSBs after exposure [13]: significantly lower levels of DSBs
- lethality after siK-H depletion of BRCA1-corrected cells ([14]; BRCA1-corrected HCC1937 + siK-H): induced lethality
- lethality after reconstitution with BRCA1 cDNA ([14]; BRCA-deficient HCC1937 + BRCA1 cDNA): abolished
- CDK1 protein level ([15]; 231 cells): no further reduction of CDK1
- BRCA1 activation (pS1497-BRCA1) ([15]; 231 cells, Rucaparib alone 5 μM): activated

Structure (SMILES): O=C1NC(=NCc2cccs2)S/C1=C\c1ccc2ncccc2c1 [RO3066]
- CDK1 protein level ([15]; 231 cells): no further reduction of CDK1
- pS1497-BRCA1 activation in combination with Rucaparib ([15]; 231 shSCR cells, Rucaparib 5 μM + RO3066 1 μM): inhibited

Structure (SMILES): Cn1ncnc1[C@H]1c2n[nH]c(=O)c3cc(F)cc(c23)N[C@@H]1c1ccc(F)cc1 [Talazoparib]
- sensitivity of shK-H cells in colony forming assays [4]: more sensitive

Source: patent publication US20180057888A1, “KUB5/HERA AS A DETERMINANT OF SENSITIVITY TO DNA DAMAGE” (priority 2015, published 2018)
